In general, EC50 refers to the concentration at which the effect is half-maximal.

Structures are written as SMILES. Like-named read-outs stand apart in the source and are kept apart here.

This test has as its target T1, human androgen receptor (hAR) (Homo sapiens, UniProt P10275).
T1 sequence (P10275 1-920): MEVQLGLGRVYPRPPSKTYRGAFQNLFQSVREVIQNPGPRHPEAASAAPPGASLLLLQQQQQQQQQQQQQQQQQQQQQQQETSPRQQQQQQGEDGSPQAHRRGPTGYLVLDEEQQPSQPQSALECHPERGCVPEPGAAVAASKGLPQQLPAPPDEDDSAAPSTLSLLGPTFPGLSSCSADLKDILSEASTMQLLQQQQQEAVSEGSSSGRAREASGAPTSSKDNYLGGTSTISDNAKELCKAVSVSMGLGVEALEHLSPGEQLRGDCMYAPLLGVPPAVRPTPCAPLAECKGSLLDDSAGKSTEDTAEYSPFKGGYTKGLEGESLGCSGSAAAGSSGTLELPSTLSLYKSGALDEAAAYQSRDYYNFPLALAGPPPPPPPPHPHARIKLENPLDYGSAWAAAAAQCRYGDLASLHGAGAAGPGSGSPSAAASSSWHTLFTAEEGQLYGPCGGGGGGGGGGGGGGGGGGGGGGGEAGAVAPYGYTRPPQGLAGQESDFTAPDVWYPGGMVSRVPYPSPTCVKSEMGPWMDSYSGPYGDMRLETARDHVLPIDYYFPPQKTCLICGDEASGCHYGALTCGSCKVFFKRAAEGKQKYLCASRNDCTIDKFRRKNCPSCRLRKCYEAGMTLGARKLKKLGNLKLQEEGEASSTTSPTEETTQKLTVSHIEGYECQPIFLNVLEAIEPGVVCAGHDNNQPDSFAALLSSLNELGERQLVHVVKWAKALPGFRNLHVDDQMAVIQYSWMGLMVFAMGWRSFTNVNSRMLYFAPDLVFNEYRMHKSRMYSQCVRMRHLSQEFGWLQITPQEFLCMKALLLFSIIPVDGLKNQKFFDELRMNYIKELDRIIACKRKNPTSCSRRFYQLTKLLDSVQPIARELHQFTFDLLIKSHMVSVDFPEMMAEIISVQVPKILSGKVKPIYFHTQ
Kind of test: Functional response test: hAR transactivation (luciferase reporter) in HALP2 cells. The format is cell-based. Particulars: for EC50: agonism, HALP2 cells (HeLa, hAR + ARE-luciferase), 20 hours at 37° C. From the text: This test constitutes a method of identifying pure or partial agonists which mimic the effects of natural hormones, such as DHT (dihydrotestosterone) in the present case or, on the other hand, antagonists which inhibit them.
For this transactivation test, plasmids encoding a reporter gene and the human androgen receptor (hAR) are introduced together by transfection into the HeLa cell line. The reporter plasmid contains luciferase cDNA under the control of the AREs contained in the promoter sequences of the probasin gene (3xpbAREminicoll-luciferase/pGL3-puro). The expression of the reporter gene constitutes an indication of the transcriptional activity of hAR. It also encodes a protein allowing the cells expressing it to resist a treatment with puromycin. The plasmid encoding hAR contains the cDNA of hAR under the control of the Cytomegalovirus (CMV) promoter. It also encodes a protein allowing the cells expressing it to resist a treatment with neomycin. The treatment of cells with increasing amounts of potentially agonistic compounds will increase the expression of the reporter gene. To detect antagonists, on the other hand, increasing doses of test compounds are tested in the presence of […] of DHT. The expression of the reporter gene, which is constant for each dose of DHT, decreases when the concentration of the test compounds increases.
For this test, HeLa cells were obtained from the American Type Culture Collection (Rockville, Md.) and cultivated in DMEM medium containing 4.5 g/l of glucose, supplemented with Glutamax and with nonessential amino-acids and with 10% of foetal calf serum (SVF; Dominique Dutscher).
On the day before transfection, a million cells were seeded in DMEM medium without phenol red, supplemented with Glutamax and with desteroided SVF (5%) in Petri dishes. The cells were transfected with 4 μg of the puromycin resistance plasmids pcDNA3-hAR and 3xpbAREminicoll-luciferase/pGL3 using the reagent “Lipofectamine plus” (Invitrogen), following the supplier's recommendations. The day after transfection, the cells were seeded to different cell densities (10,000 to 100,000 cellules per Petri dish). Two days after transfection, the transfected cells were selected in DMEM medium without phenol red, supplemented with Glutamax and with desteroided SVF (5%) containing 400 μg/mL of G418 (Invitrogen) and 150 ng/mL of puromycin (Sigma). The culture medium was renewed weekly until resistant clones appeared. The resistant clones were removed and amplified before being tested for their functional response. […]
The functional response test was conducted on 96-well plates. The HALP2 cells were seeded (30,000 cells per well) 24 hours before the phase of stimulation in DMEM medium containing 4.5 g/L of glucose, supplemented with Glutamax and nonessential amino-acids, and with desteroided SVF (5%).
On the day of stimulation, the seeding medium was replaced by DMEM medium without phenol red, supplemented with Glutamax and with desteroided SVF (5%). […] The cells were placed in contact with the compounds for 20 hours at 37° C.
(In general: In a reporter assay the amount or activity of a reporter protein is the signal.)

The mark [1] stands for this setting: antagonism, concentration which increases the EC50 of the DHT by a factor of 2, Schild regression, HALP2 cells.

Turning to `CCOCCCN1C(=O)N(c2ccc(F)c(Cl)c2)C(=O)C1c1ccc(O)cc1` (stereo not shown) [Example 88], the half-maximal effective concentration (EC50) was 34.6 nM. The “KSchild (nM) potency” value under setting [1] was determined as 34.64 nM.
Take `O=C1C(c2ccc(O)cc2)N(CCCCO)C(=O)N1c1ccc(F)c(C(F)(F)F)c1` (stereo not shown) [Example 135]: the “KSchild (nM) potency” value turned out to be 600 nM.
Turning to `C#CCN1C(=O)N(c2ccc(C#N)c(C(F)(F)F)c2)C(=O)[C@@]1(C)c1ccc(OC)cc1` [Example 154.1, (R)-4-[2,5-dioxo-4-(4-methoxyphenyl)-4-methyl-3-(2-propynyl)imidazolidin-1-yl]-2-trifluoromethylbenzonitrile], the “KSchild (nM) potency” value is 15 nM.
Same read-out and setting: for `CN1C(=O)N(c2ccc([N+](=O)[O-])cc2)C(=O)C1c1ccc(O)cc1` (stereo not shown) [Example 50] the value was 9.9 nM.
As for `CC1(c2ccc(O)cc2)C(=O)N(c2ccc(Cl)c(Cl)c2)C(=S)N1CCC#N` (stereo not shown) [Example 42, 3-[1-(3,4-dichlorophenyl)-4-(4-hydroxyphenyl)-4-methyl-5-oxo-2-thioxoimidazolidin-3-yl]-propionitrile], the concentration giving a half-maximal response (EC50) amounted to 8 nM. The “KSchild (nM) potency” value under setting [1] is on record as 4.9 nM.
The like results for `O=C1C(c2ccc(O)cc2)N(Cc2ccsc2)C(=O)N1c1ccc(F)c(Cl)c1` (stereo not shown) [Example 51] were, in that order, 15 nM and 15 nM.
Take `C#CCN1C(=O)N(c2ccc(Cl)c(Cl)c2)C(=O)C1(C)c1ccc(O)cc1` (stereo not shown) [Example 21, 1-(3,4-dichlorophenyl)-4-(4-hydroxyphenyl)-4-methyl-3-(2-propynyl)imidazolidine-2,5-dione]: the “KSchild (nM) potency” value was 3 nM.
As for `CCOC(=O)CCN1C(=O)N(c2ccc(Cl)c(C(F)(F)F)c2)C(=O)C1c1ccc(O)cc1` (stereo not shown) [Example 77], the 50% effective concentration (EC50) is 122 nM. The “KSchild (nM) potency” value under setting [1] amounted to 94.87 nM.
The like results for `N#CCCN1C(=O)N(c2ccc(F)c(Cl)c2)C(=O)C1c1ccc(O)cc1` (stereo not shown) [Example 127] were, in that order, 245 nM and 212.13 nM.
`Cc1cc([N+](=O)[O-])ccc1N1C(=O)N(C)C(C)(c2ccc(O)cc2)C1=O` (stereo not shown) [Example 26, 3,4-dimethyl-4-(4-hydroxyphenyl)-1-(2-methyl-4-nitro-phenyl)imidazolidine-2,5-dione]: the “KSchild (nM) potency” value under setting [1] was 20 nM.
For `N#CCCN1C(=O)N(c2ccc(F)c(C(F)(F)F)c2)C(=O)C1c1ccc(O)cc1` (stereo not shown) [Example 126], the concentration giving a half-maximal response (EC50) was found to be 212 nM. Further, the “KSchild (nM) potency” value under setting [1] amounted to 212.13 nM.
The corresponding values for `O=C1C(c2ccc(O)cc2)N(Cc2ccsc2)C(=S)N1c1ccc(Cl)c(Cl)c1` (stereo not shown) [Example 19, 1-(3,4-dichlorophenyl)-4-(4-hydroxyphenyl)-3-[(thiophen-3-yl)methyl]-2-thioxo-imidazolidin-5-one] are 195 nM and 154.92 nM.
Regarding `CN1C(=O)N(c2ccc(Cl)c(C(F)(F)F)c2)C(=O)C1c1ccc(O)cc1` (stereo not shown) [Example 47], the “KSchild (nM) potency” value was 48.99 nM.
On to `CC1(c2ccc(O)cc2)C(=O)N(c2ccc(Cl)c(Cl)c2)C(=O)N1CCCO` (stereo not shown) [Example 147], for which the concentration giving a half-maximal response (EC50) amounted to 300 nM. Besides, under setting [1], the “KSchild (nM) potency” value stood at 300 nM.
On to `CC1(c2ccc(O)cc2)C(=O)N(c2ccc(C#N)c(C(F)(F)F)c2)C(=O)N1CO` (stereo not shown) [Example 228.1, 4-[2,5-dioxo-3-hydroxymethyl-4-(4-hydroxyphenyl)-4-methylimidazolidin-1-yl]-2-trifluoromethylbenzonitrile], for which the “KSchild (nM) potency” value turned out to be 150 nM.
For `C=CCN1C(=O)N(c2ccc(F)c(C(F)(F)F)c2)C(=O)C1c1ccc(O)cc1` (stereo not shown) [Example 62], the concentration giving a half-maximal response (EC50) turned out to be 34.6 nM. Moreover, under setting [1], the “KSchild (nM) potency” value is reported as 34.64 nM.
With `N#Cc1ccc(N2C(=O)C(c3ccc(O)cc3)N(CCO)C2=O)cc1C(F)(F)F` (stereo not shown) [Example 137], the “KSchild (nM) potency” value was 24.49 nM.
On the same count and under the same terms, for `COC(=O)CN1C(=O)N(c2ccc(C#N)c(C(F)(F)F)c2)C(=O)C1(C)c1ccc(O)cc1` (stereo not shown) [Example 227, 4-[2,5-dioxo-4-(4-hydroxyphenyl)-3-[(methoxycarbonyl)methyl]-4-methylimidazolidin-1-yl]-2-trifluoromethylbenzonitrile] the value was 3.46 nM.
Regarding `O=C1C(c2ccc(O)cc2)N(Cc2ccc3c(c2)OCO3)C(=O)N1c1cccc(C(F)(F)F)c1` (stereo not shown) [Example 104], the EC50 is 200 nM. Besides, the “KSchild (nM) potency” value under setting [1] is 200 nM.
With `CCCN1C(=O)N(c2ccc([N+](=O)[O-])c(C(F)(F)F)c2)C(=O)C1c1ccc(O)cc1` (stereo not shown) [Example 54], the “KSchild (nM) potency” value under setting [1] was 200 nM.
On to `CN1C(=S)N(c2ccc(C#N)c(C(F)(F)F)c2)C(=O)C1(C)c1ccc(O)cc1` (stereo not shown) [Example 44, 4-[3,4-dimethyl-4-(4-hydroxyphenyl)-5-oxo-2-thioxoimidazolidin-1-yl]-2-trifluoromethylbenzonitrile], for which the “KSchild (nM) potency” value was 4 nM.
On to `O=C1C(c2ccc(O)cc2)N(Cc2ccc3c(c2)OCO3)C(=O)N1c1ccc(F)c(C(F)(F)F)c1` (stereo not shown) [Example 102], for which the concentration for a half-maximal effect (EC50) came out at 49 nM. Besides, the “KSchild (nM) potency” value under setting [1] came to 48.99 nM.
The like results for `O=C1C(c2ccc(O)cc2)N(CCO)C(=O)N1c1ccc(F)c(C(F)(F)F)c1` (stereo not shown) [Example 142] were, in that order, 141 nM and 141.42 nM.
The like results for `CN1C(=O)N(c2ccc(Cl)c3ccccc23)C(=O)C1(C)c1ccc(O)cc1` (stereo not shown) [Example 32, 1-(4-chloronaphthyl)-3,4-dimethyl-4-(4-hydroxyphenyl)imidazolidine-2,5-dione] were, in that order, 300 nM and 300 nM.
With `N#CCCN1C(=O)N(c2ccc([N+](=O)[O-])c(C(F)(F)F)c2)C(=O)C1c1ccc(O)cc1` (stereo not shown) [Example 122], the “KSchild (nM) potency” value was determined as 244.95 nM.
Regarding `CCOC(=O)CCN1C(=O)N(c2ccc([N+](=O)[O-])c(C(F)(F)F)c2)C(=O)C1c1ccc(O)cc1` (stereo not shown) [Example 75], the “KSchild (nM) potency” value is given as 600 nM.
On to `O=C1C(c2ccc(O)cc2)N(Cc2ccc3c(c2)OCO3)C(=O)N1c1ccc([N+](=O)[O-])c(C(F)(F)F)c1` (stereo not shown) [Example 98], for which the “KSchild (nM) potency” value is on record as 94.87 nM.
On the same count and under the same terms, as for `CN1C(=O)N(c2ccc(C#N)c3c2OCCO3)C(=O)C1(C)c1ccc(O)cc1` (stereo not shown) [Example 35, 4-[3,4-dimethyl-2,5-dioxo-4-(4-hydroxyphenyl)imidazolidin-1-yl]-2,3-(1,2-ethylenedioxy)-benzonitrile], the figure is 36.34 nM.
The same measure, in the same setting: as for `O=C1C(c2ccc(O)cc2)N(CCO)C(=O)N1c1ccc([N+](=O)[O-])c(C(F)(F)F)c1` (stereo not shown) [Example 138], the figure is 600 nM; as for `COc1ccc(C2(C(F)(F)F)C(=O)N(c3ccc(C#N)c(C(F)(F)F)c3)C(=O)N2C)cc1` (stereo not shown) [Example 161, 4-[2,5-dioxo-4-(4-methoxyphenyl)-3-methyl-4-trifluoromethylimidazolidin-1-yl]-2-trifluoromethylbenzonitrile], 60 nM.
